According to patent publication US20230357253A1, “AGONISTS OF STIMULATOR OF INTERFERON GENES STING” (THE SCRIPPS RESEARCH INSTITUTE, priority 2020, published 2023):

Assays:
THP-1 Lucia ISG cells = assay: ISRE-luciferase assay (ISG-LUC activation); format: cell-based; details: Homo sapiens, THP1-Lucia ISG, 24 hours, luciferase reporter
Summary of the method: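 THP-1 Lucia ISG cells at 5×10^5 cells/ml in 2% FBS medium were treated with test article or DMSO vehicle for 24 h. Secreted luciferase was read by luminescence and normalized to vehicle, reported as RLU.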

human STING protein = human STING protein (Homo sapiens (Human), UniProt Q86WV6); assay: WT STING binding assay (HTRF, competition with labeled 2′3′cGAMP); details: recombinant 6×His-tagged human STING, three hours at room temperature
Summary of the method: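 Competitive HTRF binding: 10-point compound titration incubated 3 h at room temperature with 6×His-tagged human STING and labeled 2′3′cGAMP; FRET read at 665 nm. IC50 by curve fitting; percent inhibition relative to maximal binding of unlabeled 2′3′cGAMP control.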

Sequence of human STING protein (Q86WV6 whole entry): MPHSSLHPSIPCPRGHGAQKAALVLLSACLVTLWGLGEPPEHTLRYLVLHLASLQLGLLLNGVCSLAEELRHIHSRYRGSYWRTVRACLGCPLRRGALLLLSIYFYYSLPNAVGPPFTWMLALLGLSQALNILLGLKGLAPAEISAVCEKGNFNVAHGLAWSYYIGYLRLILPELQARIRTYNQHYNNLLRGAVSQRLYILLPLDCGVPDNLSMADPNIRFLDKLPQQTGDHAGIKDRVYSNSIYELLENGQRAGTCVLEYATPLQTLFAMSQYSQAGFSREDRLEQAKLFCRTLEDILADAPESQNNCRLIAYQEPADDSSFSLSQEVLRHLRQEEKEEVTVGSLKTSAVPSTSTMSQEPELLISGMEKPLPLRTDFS

| EC50 (THP-1 Lucia ISG cells) | IC50 (human STING protein) | Structure (SMILES) |
| --- | --- | --- |
| 500 to 5000 nM | 100 to 1000 nM | O=C(Nc1cc(OCCCCOc2cc(NC(=O)c3ccc(-n4ccnc4)nn3)c(C(=O)O)cc2Cl)c(Cl)cc1C(=O)O)c1ccc(-n2ccnc2)nn1 [Compound 50] |
| > 5000 nM | 100 to 1000 nM | O=C(Nc1cc(OCCCCOc2cc(NC(=O)c3ccc4nnnn4n3)c(C(=O)O)cc2F)c(F)cc1C(=O)O)c1ccc(-n2ccnc2)nn1 [Compound 22] |
| > 5000 nM | 100 to 1000 nM | N#Cc1nnn2nc(C(=O)Nc3cc(CCOc4cc(NC(=O)c5ccc(-n6ccnc6)nn5)c(C(=O)O)cc4F)c(F)cc3C(=O)O)ccc12 [Compound 136] |
| 50 to 500 nM | 10 to 100 nM | O=C(Nc1cc(CCCCc2cc(NC(=O)c3ccc4nnnn4n3)c(C(=O)O)cc2F)c(F)cc1C(=O)O)c1ccc(-n2ccnc2)nn1 [Compound 98] |
| 50 to 500 nM | 10 to 100 nM | COc1cc(NC(=O)c2ccc(-n3ccnc3)nn2)c(C(=O)O)cc1OCCc1cc(NC(=O)c2ccc(-n3ccnc3)nn2)c(C(=O)O)cc1F [Compound 142] |
| 500 to 5000 nM | 10 to 100 nM | O=C(Nc1cc(CSCc2cc(NC(=O)c3ccc4nnnn4n3)c(C(=O)O)cc2F)c(F)cc1C(=O)O)c1ccc(-n2ccnc2)nn1 [Compound 184] |
| 500 to 5000 nM | 100 to 1000 nM | COC(=O)c1ccc(CCCc2ccc(C(=O)O)c(NC(=O)c3ccc(-n4ccnc4)nn3)c2)cc1NC(=O)c1ccc(-n2ccnc2)nn1 [Compound 47] |
| 500 to 5000 nM | 10 to 100 nM | COc1cc(C(=O)O)c(NC(=O)c2ccc3nnnn3n2)cc1OCCCCOc1cc(NC(=O)c2ccc(-n3ccnc3)nn2)c(C(=O)O)cc1F [Compound 95] |
| > 5000 nM | 100 to 1000 nM | O=C(Nc1cc(F)c(CCCc2cc(C(=O)O)c(NC(=O)c3ccc(-n4ccnc4)nn3)cc2F)cc1C(=O)O)c1ccc(-n2ccnc2)nn1 [Compound 172] |
| 500 to 5000 nM | 10 to 100 nM | COC(=O)c1nc(Cl)c(CCCc2cnc(C(=O)O)c(NC(=O)c3ccc(-n4ccnc4)nn3)c2)cc1NC(=O)c1ccc(-n2ccnc2)nn1 [Compound 80] |
| > 5000 nM | 100 to 1000 nM | COc1cc(C(=O)O)c(NC(=O)c2ccc(-n3ccnc3)nn2)cc1OCCCCOc1ccc(C(=O)O)c(NC(=O)c2ccc(-n3ccnc3)nn2)c1 [Compound 49] |
| 500 to 5000 nM | 10 to 100 nM | O=C(Nc1cc(CCOCc2cc(NC(=O)c3ccc(-n4ccnc4)nn3)c(C(=O)O)cc2F)c(F)cc1C(=O)O)c1ccc(-n2ccnc2)nn1 [Compound 149] |
| 50 to 500 nM | 100 to 1000 nM | O=C(Nc1cc(OCCc2cc(NC(=O)c3ccc4nnnn4n3)c(C(=O)O)cc2Cl)ccc1C(=O)O)c1ccc(-n2ccnc2)nn1 [Compound 114] |
| 500 to 5000 nM | 100 to 1000 nM | COC(=O)c1ccc(CCCc2cc(NC(=O)c3ccc4nnnn4n3)c(C(=O)O)cc2F)cc1NC(=O)c1ccc(-n2ccnc2)nn1 [Compound 88] |
| > 5000 nM | 100 to 1000 nM | O=C(Nc1cc(CCCc2cc(NC(=O)c3ccc4nnnn4n3)c(C(=O)O)cc2F)c(F)cc1C(=O)O)c1ccc2nnnn2n1 [Compound 161] |
| 50 to 500 nM | 10 to 100 nM | O=C(Nc1cc(COCc2cc(NC(=O)c3ccc(-n4ccnc4)nn3)c(C(=O)O)cc2F)c(F)cc1C(=O)O)c1ccc(-n2ccnc2)nn1 [Compound 151] |
| 500 to 5000 nM | 100 to 1000 nM | COc1cc(C(=O)O)c(NC(=O)c2ccc(-n3ccnc3)nn2)cc1OCCCCOc1cc(NC(=O)c2ccc(-n3ccnc3)nn2)c(C(=O)O)cc1F [Compound 58] |
| 50 to 500 nM | 10 to 100 nM | COc1cc(NC(=O)c2ccc3nnnn3n2)c(C(=O)O)cc1CCCc1cc(NC(=O)c2ccc(-n3ccnc3)nn2)c(C(=O)O)cc1F [Compound 96] |
| 50 to 500 nM | 10 to 100 nM | O=C(Nc1cc(CCCc2ccc(C(=O)O)c(NC(=O)c3ccc(-n4ccnc4)nn3)c2)ccc1C(=O)O)c1ccc(-n2ccnc2)nn1 [Compound 48] |
